# Experiments:
# Plasmopara viticola = assay: Antisporulant activity against vine downy mildew (PVA); format: in vivo; settings: vine leaves, antisporulant foliar spray, 600 ppm, 750 l/ha
# Outline: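 Cabernet Sauvignon vines (~8 cm) inoculated on lower leaf surfaces with 5×10^4 zoosporangia/ml, held 24 h at 21° C high humidity then 24 h glasshouse. Infected leaves sprayed underside with 600 ppm compound in 1:1 water/acetone, 0.04% Tween 20, 750 l/ha; 96 h glasshouse, 24 h humidity. Sporulating leaf area rated versus control.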
# Alternaria solani = assay: Activity against tomato early blight (AS); format: in vivo; settings: Table VI; tomato seedlings, contact prophylactic foliar spray, 4 days
# Outline: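 Plants were challenged with A. solani conidia (10^4 spores/ml) 24 h after a protective foliar spray of compound in 50:50 acetone/water plus 0.04% Tween 20. Held humid at 21° C for 4 days, then percent leaf area with lesions was scored as a rating relative to controls.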
# Botrytis cinerea = assay: Direct protectant activity against broad bean grey mould (BCB); format: in vivo; settings: direct protectant foliar spray, 600 ppm, 4 days
# Outline: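 Protectant foliar test: lesion coverage assessed 4 days after inoculation and rated relative to untreated or diluent-sprayed plants. Compound applied at 600 ppm to cv The Sutton leaves 24 h before 10^6 conidia/ml suspension; incubation at 22 °C in high humidity.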
# Leptosphaeria nodorum = assay: Activity against wheat leafspot (LN); format: in vivo; settings: direct therapeutic foliar spray, 600 ppm, 6-8 days
# Outline: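 Therapeutic foliar spray: compound at 600 ppm applied to single-leaf wheat (cv Norman) 24 h after inoculation with 1.5×10^6 conidia/ml. Disease control scored after 6-8 days at 22° C and 70% humidity as lesions per leaf versus untreated or diluent-sprayed controls.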
# [1] = system: Erysiphe graminis f.sp. hordei; assay: Activity against barley powdery mildew, direct therapeutic (EGT); format: in vivo; settings: direct therapeutic foliar spray, 600 ppm, up to 7 days
# Outline: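 A curative spray at 600 ppm was applied to single-leaf Golden Promise barley inoculated with powdery mildew conidia the previous day. After up to 7 days at 18 °C and 40% humidity, disease control was rated from percent leaf area sporulating relative to untreated or diluent-sprayed controls.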
# [2] = system: Erysiphe graminis f.sp. hordei; assay: Direct protectant activity against barley powdery mildew (EGP); format: in vivo; settings: direct protectant foliar spray, 8 days
# Outline: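 Rating reflects percentage of leaf area with sporulation compared with untreated or diluent-sprayed controls. Protectant spray was applied to single-leaf barley (cv Golden Promise) 24 h before conidia inoculation. Plants were kept at 18 °C and 40% RH throughout, with 8 days of disease development.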
# Phytophthora infestans = format: in vivo; settings: tomato, direct protectant foliar spray
# [3] = system: Pseudocercosporella herpotrichoides; assay: Activity against wheat eyespot in-vitro (PHI); format: cell-based; settings: 10 ppm, 10 days, 20° C., mycelial growth
# Outline: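 Mycelial growth was scored after 10 days at 20 °C against untreated or diluent controls. The broth was half-strength potato dextrose, holding 10 ppm test compound (from acetone) and 5×10^4 fragments/ml of the eyespot fungus.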
# Rhizoctonia solani = assay: Activity against Rhizoctonia in-vitro (RSI); format: cell-based; settings: 10 ppm, 10 days, 20° C., mycelial growth
# Outline: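 Compound at a final 10 ppm (acetone vehicle) in half-strength PDB, inoculated with 5×10^4 fragments/ml of shaken-culture R. solani mycelium. After incubation at 20° C for 10 days, growth scored as a rating versus untreated or diluent-treated controls.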
# Venturia inaequalis = assay: Activity against apple scab in-vitro (VII); format: cell-based; settings: 10 ppm, 10 days, 20° C., mycelial growth
# Outline: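 V. inaequalis propagules (5×10^4/ml, malt agar-grown) were exposed in half-strength PDB to 10 ppm final test compound delivered in acetone. Growth was scored after incubation for 10 days at 20° C, as a rating relative to untreated or diluent-sprayed controls.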
# Pyricularia oryzae = format: in vivo; settings: rice seedlings, direct therapeutic foliar spray, 600 ppm, 4-5 days
SMILES,disease control rating PVA (Plasmopara viticola),disease control rating AS (Alternaria solani),disease control rating BCB (Botrytis cinerea),disease control rating LN (Leptosphaeria nodorum),disease control rating EGT [1],disease control rating EGP [2],disease control rating PIP (Phytophthora infestans),disease control rating PHI [3],disease control rating RSI (Rhizoctonia solani),disease control rating VII (Venturia inaequalis),disease control rating PO (Pyricularia oryzae)
CCN(CC1CCCCC1)C1COC2(CCC(C(C)(C)C)CC2)C1 (stereo not shown) [Compound 92],0 (less than 50% disease control),0 (less than 50% disease control),2 (greater than 80% disease control),0 (less than 50% disease control),2 (greater than 80% disease control),2 (greater than 80% disease control),2 (greater than 80% disease control),0 (less than 50% disease control),1 (about 50-80% disease control),0 (less than 50% disease control),0 (less than 50% disease control)
CCCN(CC1CCCCC1)C1COC2(CCC(C(C)(C)C)CC2)C1 (stereo not shown) [Compound 93],0 (less than 50% disease control),0 (less than 50% disease control),0 (less than 50% disease control),0 (less than 50% disease control),2 (greater than 80% disease control),2 (greater than 80% disease control),2 (greater than 80% disease control),0 (less than 50% disease control),1 (about 50-80% disease control),0 (less than 50% disease control),0 (less than 50% disease control)
CCC(CC)N(C)C1COC2(CCC(C(C)(C)C)CC2)C1 (stereo not shown) [Compound 94],0 (less than 50% disease control),0 (less than 50% disease control),0 (less than 50% disease control),1 (about 50-80% disease control),2 (greater than 80% disease control),2 (greater than 80% disease control),0 (less than 50% disease control),0 (less than 50% disease control),1 (about 50-80% disease control),0 (less than 50% disease control),0 (less than 50% disease control)
CCC(CC)N(CC)C1COC2(CCC(C(C)(C)C)CC2)C1 (stereo not shown) [Compound 95],0 (less than 50% disease control),0 (less than 50% disease control),0 (less than 50% disease control),0 (less than 50% disease control),2 (greater than 80% disease control),2 (greater than 80% disease control),0 (less than 50% disease control),0 (less than 50% disease control),1 (about 50-80% disease control),0 (less than 50% disease control),0 (less than 50% disease control)
CCCN(C(CC)CC)C1COC2(CCC(C(C)(C)C)CC2)C1 (stereo not shown) [Compound 96],0 (less than 50% disease control),0 (less than 50% disease control),0 (less than 50% disease control),0 (less than 50% disease control),2 (greater than 80% disease control),2 (greater than 80% disease control),0 (less than 50% disease control),0 (less than 50% disease control),1 (about 50-80% disease control),1 (about 50-80% disease control),0 (less than 50% disease control)
"CC(C)(C)C1CCC2(CC1)CC(N)CO2 (stereo not shown) [Compound 97, 3-amino-8-t-butyl-1-oxaspiro(4,5)-decane]",0 (less than 50% disease control),0 (less than 50% disease control),0 (less than 50% disease control),0 (less than 50% disease control),2 (greater than 80% disease control),2 (greater than 80% disease control),2 (greater than 80% disease control),0 (less than 50% disease control),0 (less than 50% disease control),0 (less than 50% disease control),0 (less than 50% disease control)
CC(C)(C)C1CCC2(CC1)CC(NC1CCC3CCCCC3C1)CO2 (stereo not shown) [Compound 98],0 (less than 50% disease control),0 (less than 50% disease control),2 (greater than 80% disease control),0 (less than 50% disease control),2 (greater than 80% disease control),2 (greater than 80% disease control),2 (greater than 80% disease control),0 (less than 50% disease control),1 (about 50-80% disease control),2 (greater than 80% disease control),0 (less than 50% disease control)
"CCCC(CCC)NC1COC2(CCC(C(C)(C)C)CC2)C1 (stereo not shown) [Compound 99, 3-Hept-4-ylamino-8-t-butyl-1-oxaspiro(4,5)-decane]",0 (less than 50% disease control),0 (less than 50% disease control),0 (less than 50% disease control),0 (less than 50% disease control),2 (greater than 80% disease control),2 (greater than 80% disease control),2 (greater than 80% disease control),0 (less than 50% disease control),0 (less than 50% disease control),2 (greater than 80% disease control),0 (less than 50% disease control)
